Laboratory results published in patent US11236055B2 (Venenum Biodesign, LLC, priority 2016, dated 2022).
Like-named read-outs stand apart in the source and are kept apart here.

Columns and labels:
Assay type in all cases: in vivo, mouse
[1] = Absorption vs. first pass metabolism: Cmax with and without 1-aminobenzotriazole (ABT) pre-treatment; details: ICR, mouse, plasma; lean mice receiving ABT (150 mg/kg) 2 h before compound, 10 mg/kg oral
Protocol: Absorption Vs. First Pass Metabolism
In this study, the absorption was examined as compared to first pass metabolism of the compounds of the present invention. ICR mice (Hilltop) were pre-treated with 1-aminobenzotriazole (ABT), a nonselective inhibitor of cytochrome P450 enzymes to inhibit Cyp450-mediated degradation of the compounds in liver.
ABT was administered at 150 mg/kg in 5 mL/kg of 0.04% ethanol in 0.5% methyl cellulose (w/v) by oral gavage, 2 hours prior to test compound administration. The compounds 20AA and 20AC were administered by oral gavage at 10 mg/kg in 10 mL/kg of 20% PEG400/80% (0.5% (w/v) CMC containing 0.25% (v/v) Tween 80) (v/v), 2 hours after the ABT treatment. Blood was collected via orbital bleeding at predose, 0.25, 0.5, 1, 2, and 4 hours post-dose and the quantification of compound levels in plasma was accomplished by means of LC-MS/MS analysis as described in Example 59. Reference compound “Propranolol” that is known to be metabolized by Cyp450 was used as a positive control.
FIG. 4 depicts the Cmax (nM) of the compounds of the present invention with and without ABT pre-treatment.

[2] = Comparison of PK in DIO mice and lean mice; details: for Cmax / Tmax / AUC(0-t): mouse, plasma, po; for AUC(0-t): read-out: AUC (0-4 h)
Protocol: Comparison of PK in DIO Mice and Lean Mice
The PK characteristics of Compound 20AA were examined in non-fasted lean C57BL/6N and DIO mice (Taconic). Compound 20AA was orally administered to both groups at 10 mg/kg by oral gavage and plasma concentration of the compound was determined as described in Example 59.
In addition, PK parameters were determined for Compound 20AA (i.e., Cmax, Tmax and AUC) following oral administration in four groups of mice: (i) fasted lean mice; (ii) non-fasted lean mice; (iii) non-fasted DIO mice; and (iv) lean mice receiving ABT.

[3] = test system: GLP-1 plasma level in DIO mice; assay: GLP-1 levels after multiple days of dosing in DIO mice; details: 12 days BID oral, in combination with linagliptin, 6 h after final dose
Protocol: GLP-1 Levels after Multiple Days of Dosing Compounds
Compounds of the present invention were dosed for multiple days and were evaluated to determine if they produce sustained GLP-1 levels. In this example, the protocol from Example 66 was utilized. In week 2 of the study, mice were euthanized and blood was collected 6 hours after the final dose of compound. For the GLP-1 assay, 200-250 μL of blood was placed in an EDTA K^2+ tube containing 5 μL of 40 mg/mL aprotinin (Sigma A1153) and 1 μL of 10 mM sitagliptin (Sigma S8576) and plasma was separated by centrifugation. Plasma samples were stored at −20° C. until analysis. The active form of GLP-1 [GLP-1 (7-36) amide] was analyzed using Meso Scale Discovery System according to the manufacturer's directions (item number K150HYC). Values of p<0.05 are considered statistically significant.

[4] = C57BL/6N, 10 mg/kg, DIO mice, non-fasted, 10 mpk
[5] = C57BL/6N, 10 mg/kg, Lean mice, non-fasted, 10 mpk
[6] = C57BL/6N, 10 mg/kg, Non-fasted DIO mice, 10 mg/kg oral
[7] = C57BL/6N, 10 mg/kg, Non-fasted Lean mice, 10 mg/kg oral
[8] = Fasted Lean mice, oral administration

## Cc1cnccc1-c1cccc(C(C)(C)N(CCCC(=O)NCCS(=O)(=O)O)S(=O)(=O)c2ccccc2C(F)(F)F)c1 [Compound 20AA, 2-(4-(N-(2-(3-(3-methylpyridin-4-yl)phenyl)propan-2-yl)-2-(trifluoromethyl)phenylsulfonamido)butanamido)ethanesulfonic acid]
[1]
  Cmax: 2.6 nM
  Tmax: 0.25 h
[2]; [4]
  Cmax: 1.7 nM
  Tmax: 1 h
[2]; [5]
  Cmax: 3 nM
  Tmax: 1 h
[2]; [6]
  Cmax: 1.7 nM
  Tmax: 1 h
  AUC(0-t): 7.6 ng·h/mL
[2]; [7]
  Cmax: 3 nM
  Tmax: 0.25 h
  AUC(0-t): 4 ng·h/mL
[2]; lean and DIO mice, fasted or non-fasted, oral administration
  PK profile (Cmax, Tmax, AUC): low PK profile
[2]; [8]
  Cmax: 7.2 nM
  Tmax: 1 h
  AUC(0-t): 26 ng·h/mL

## CCc1cnccc1-c1cccc([C@H](C)N(CCCC(=O)NCCS(=O)(=O)NCC(=O)O)S(=O)(=O)c2ccccc2C(F)(F)F)c1 [Compound 20BG]
[3]
  GLP-1 plasma level versus vehicle: significantly increased
